The NIST ThermoML archive (doi:10.1021/je9006037)

Assay: refractive index (Na D-line) (dimensionless); xn = mol fraction of the nth substance listed
Conditions: 101 kPa, Liquid

CCn1cc[n+](C)c1.O=S(=O)([O-])C(F)(F)F [1-ethyl-3-methylimidazolium trifluoromethanesulfonate] + CC(C)O
refractive index
Conditions | 288.15 K | 298.15 K | 308.15 K | 318.15 K | 328.15 K | 338.15 K
x1 = 0.04997 | 1.38697 | 1.38304 | 1.37919 | 1.3753 | 1.37148 | 1.36735
x1 = 0.09937 | 1.39302 | 1.38935 | 1.38578 | 1.38236 | 1.37896 | 1.37487
x1 = 0.1504 | 1.39853 | 1.39494 | 1.39186 | 1.38861 | 1.38506 | 1.38103
x1 = 0.1995 | 1.40326 | 1.39957 | 1.39662 | 1.39356 | 1.39032 | 1.38662
x1 = 0.2508 | 1.40739 | 1.40382 | 1.40089 | 1.39817 | 1.39474 | 1.3916
x1 = 0.2997 | 1.411 | 1.4074 | 1.40439 | 1.40147 | 1.3983 | 1.39544
x1 = 0.3988 | 1.41689 | 1.41365 | 1.41071 | 1.40758 | 1.40457 | 1.40189
x1 = 0.5014 | 1.42209 | 1.41872 | 1.41564 | 1.41261 | 1.40972 | 1.4068
x1 = 0.6012 | 1.42562 | 1.42259 | 1.41956 | 1.41667 | 1.41379 | 1.41098
x1 = 0.6972 | 1.42868 | 1.42574 | 1.42285 | 1.41998 | 1.41714 | 1.41431
x1 = 0.7978 | 1.43159 | 1.42861 | 1.42579 | 1.42298 | 1.42017 | 1.41738
x1 = 0.8342 | 1.43251 | 1.42965 | 1.42678 | 1.42395 | 1.42115 | 1.41837
x1 = 0.8905 | 1.43379 | 1.43098 | 1.42818 | 1.42541 | 1.42264 | 1.41986
x1 = 1 | 1.43599 | 1.43322 | 1.4304 | 1.42767 | 1.42494 | 1.42222

CCn1cc[n+](C)c1.O=S(=O)([O-])C(F)(F)F [1-ethyl-3-methylimidazolium trifluoromethanesulfonate] + CCCO
refractive index
Conditions | 288.15 K | 298.15 K | 308.15 K | 318.15 K | 328.15 K | 338.15 K
x1 = 0.05007 | 1.39381 | 1.38991 | 1.38613 | 1.38243 | 1.37892 | 1.37545
x1 = 0.1013 | 1.39933 | 1.39557 | 1.39221 | 1.38877 | 1.38613 | 1.38306
x1 = 0.1503 | 1.40371 | 1.4001 | 1.3968 | 1.3938 | 1.39112 | 1.38856
x1 = 0.2001 | 1.40743 | 1.404 | 1.4009 | 1.39795 | 1.39522 | 1.39266
x1 = 0.2497 | 1.41088 | 1.40747 | 1.40434 | 1.40127 | 1.39872 | 1.39631
x1 = 0.3008 | 1.41391 | 1.41061 | 1.40747 | 1.40445 | 1.40173 | 1.39926
x1 = 0.3996 | 1.41854 | 1.41537 | 1.41218 | 1.40923 | 1.40634 | 1.40392
x1 = 0.4965 | 1.42297 | 1.41986 | 1.41681 | 1.41376 | 1.41082 | 1.4078
x1 = 0.602 | 1.42671 | 1.42372 | 1.42062 | 1.41752 | 1.41447 | 1.41163
x1 = 0.7043 | 1.42943 | 1.42647 | 1.42347 | 1.42076 | 1.41793 | 1.41508
x1 = 0.7945 | 1.43174 | 1.42886 | 1.42604 | 1.42323 | 1.4204 | 1.41758
x1 = 0.8421 | 1.4325 | 1.42963 | 1.4268 | 1.42398 | 1.42115 | 1.41838
x1 = 0.8988 | 1.43378 | 1.43096 | 1.42815 | 1.42533 | 1.42258 | 1.41984
x1 = 1 | 1.43599 | 1.43322 | 1.4304 | 1.42767 | 1.42494 | 1.42222
